Experimental data taken from article PMC10571035 (Science translational medicine, 2020).

Target: T1, Heat shock factor 1 (HSF1) (Homo sapiens, UniProt Q00613)
T1 sequence (Q00613 15-120 limits assumed): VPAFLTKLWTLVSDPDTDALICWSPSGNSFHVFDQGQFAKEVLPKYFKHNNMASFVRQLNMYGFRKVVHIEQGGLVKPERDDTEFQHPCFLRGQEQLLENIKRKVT
Experiment: SPR Kd
Format: binding

O=C(Nc1ccc(F)cc1)Nc1ccc(Cl)c([N+](=O)[O-])c1 [DTHIB]
Kd: 160 nM
